Measured values: article PMC4920072, “Peptide:glycosaminoglycan hybrid hydrogels as an injectable intervention for spinal disc degeneration” (Journal of Materials Chemistry. B, Materials for Biology …, 2016)

What was measured:
Assay type in all cases: physicochemical
[1] = Visually observed gelation time / physical state of peptide and peptide:GAG samples; settings: for Time to gel: peptide concentration = 20 mg/ml, typical gelation times
Procedure: Therefore the GAGs must be directly interacting with the peptides via physical bonds to enhance their gelation.
c.) 200 P11-12 1-9 days Wavenumbers (cm-1) Wavenumbers (cm-1) […]
Figure S1. […]
Peptide GAG ratio Time to gel ( peptide concentration = 20 mg/ml)
P11-4 1:2 Seconds-minutes
Table S1. Typical gelation times in 20mg/ml samples
(also on this page, place not known: (cm -1 ) (cm -1 ) (cm -1 ) Estimated monomer (µM) Aromatic 0 / µM Apparent critical relative integral 0.125 mM TMSP concentration to concentration Seconds-minutesP11-4 SecondsP11-8 SecondsP11-9 P11-12) […]
Figure S3. From left to right P11-12, P11-12:PEG (Mw 10k), P11-12:PEG (Mw 100k). 130 mM NaCl in D2O, PEG added at same wt% as 1:10
Pep:GAG ratio. All samples = liquid

[2] = Transmission electron microscopy of peptide and peptide:GAG aggregates; settings: TEM, uranyl acetate negative stain; for Twist pitch: peptide alone, 130 mM NaCl in D2O
Description: We observe that incorporation of GAGs into peptide hydrogels also modifies their microscopic properties. Transmission electron microscopy images reveal pronounced differences in the fibril morphologies (Fig. 3a and Fig. S2, S3, ESI ^‡). Broadly speaking, the changes in gel structure between peptide-only and peptide:GAG gels are very similar. In peptide-only gels, the fibril widths are of the order of 10 nm. This compares to peptide:GAG gels where the fibrils align and cluster together with bundle diameters of the order of 100 nm. […] Transmission electron microscopy of uranyl acetate stained samples were carried out on a Philips CM10/Jeol JEM1400 electron microscope operating at 80/120 kV. Fourier transform infra-red spectra were acquired with a Thermo Scientific Nicolet 6700 FTIR spectrometer. […] TFA has a FTIR band located at 1673 cm-1 and peptides with greater number of arginine and ornithine residues will contain more TFA and therefore a large TFA peak in the FTIR spectra. Transmission electron microscopy, TEM P11-9 and P11-9:GAG samples were prepared in DPBS (Dubeccos phosphate buffered saline, Sigma Aldrich), solution containing 0.04% NaN3, (Sodium azide, Sigma Aldrich, 99%)to prevent bacterial growth. The samples were vortexed for 20 seconds, and then sonicated for 30 minutes. Solution pH was measured and adjusted to 7.4 ± 0.3. Any adjustment of pH, if necessary, was made with μL volumes of 0.1 to 1 mol dm-3 HCL (Hydrochloric acid, Fisher Scientific, analytical reagent grade, 37% wt diluted with purified water), and/or 0.1 to 1 mol dm-3 NaOH (Sodium hydroxide pellets, Fisher […], analytical grade, dissolved in and diluted with purified water). Solution vials were closed, sealed with PTFE tape, and then warmed to approximately 80 °C to maximise peptide solubility. Following warming GAG powder was added to the peptide solutions and the mixture was vortexed to ensure complete mixing The resulting gels were left to equilibrate for approximately four and a half months. For P11-4, P11-8 and P11-12, samples with and without GAG prepared for FTIR were used, these were left to equillibriate for 4 days prior to TEM grid preparation. The gels were then diluted (20 μl of sample in 60 μl D2O) minutes prior to addition to the TEM grids. Glow discharged carbon film coated copper TEM grids (Agar Scientific) were touched onto the peptide and peptide:gag solutions for one minute. The grid was air-dried and then negatively stained with uranyl acetate solution (2% w/v) for 20 seconds and air-dried. TEM images for P11-4, P11-8 and P11-12, samples with and without GAG were obtained using a Jeol JEM1400 transmission electron microscope operating […] voltage. TEM images of […] with and without GAG were obtained using a Philips CM10 electron microscope operating at 80 kV accelerating voltage. Rheometry Peptide and peptide:GAG samples were prepared in DPBS (Dubeccos phosphate buffered saline, Sigma Aldrich), solution containing 0.04% NaN3 (sodium azide, Sigma Aldrich, 99%). The samples were vortexed for 20 seconds, and then sonicated for 30 minutes. Solution pH was measured and adjusted to 7.4 ± 0.3. Any adjustment of pH, if necessary, was made with μL volumes of 0.1 to 1 mol dm-3 HCL (hydrochloric acid, Fisher Scientific, analytical reagent grade, 37% wt diluted with purified water), and/or 0.1 to 1 mol dm-3 NaOH (Sodium hydroxide pellets, Fisher […], analytical grade, dissolved in and diluted with purified water). Solution vials were closed, sealed with PTFE tape, and then warmed to approximately 80 °C to maximise peptide solubility. Following warming GAG powder was added to the peptide solutions and the mixture was vortexed to ensure complete mixing The resulting gels were left to equilibrate at room temperature (P11-4 20 days, P11-8 1.5 months, P11-9 one month and P11-12 two months). Rheometry measurements used a Malvern Kinexus Pro rheometer with a cone-plate geometry (cone angle: 1O, diameter: 50 mm, gap: 0.033 mm). […]

[3] = 1H NMR of free peptide monomer concentration (apparent critical aggregation concentration c*, equilibration); settings: 1H NMR aromatic region integral relative to TMSP, 130 mM NaCl in D2O, pD 7.4, room temperature
Procedure: NMR characterisation of the free peptide monomer concentration that coexists in equilibrium with the peptide fibrils (and therefore the apparent c*) is found to decrease in the presence of GAG (Fig. 2a and Fig. S1a, ESI ^‡).
The thermodynamics are affected by the presence of GAG.
^1H Nuclear Magnetic Resonance spectra were recorded on a Bruker DPX300 300 MHz spectrometer. Transmission electron microscopy of uranyl acetate stained samples were carried out on a Philips CM10/Jeol JEM1400 electron microscope operating at 80/120 kV. Fourier transform infra-red spectra were acquired with a Thermo Scientific Nicolet 6700 FTIR spectrometer. Rheological measurements used a Malvern Kinexus Pro rheometer with a cone-plate geometry. […]
Peptide and peptide:GAG samples were prepared directly in D2O (Deuterium Oxide, Sigma Aldrich 99.9% D) containing 130 mM NaCl (Sodium Chloride, Fisher Scientific, analytical grade) and […] TMSP (deuterated Sodium 3-(trimethylsilyl)propionate-2,2,3,3-d4, Cambridge Isoptope Labortatories, chemical shift 0 ppm) an internal reference standard. […] Solution pD was measured and adjusted to 7.4 ± 0.3 using the relation pD = pH + 0.4.[1] […]
NMR data were acquired at room temperature with a Bruker DPX 300 spectrometer, operating at 300 MHz (5 mm probe, spectral width 5995 Hz). A presaturation program was used to minimize the water peak, and 1024 scans were measured per spectrum. […]

[4] = Control (peptide only, no GAG), visually observed, room temperature
[5] = peptide : GAG ratio 1:2, visually observed, room temperature
[6] = peptide : GAG ratio 1:10, visually observed, room temperature
[7] = peptide alone or peptide:GAG 1:10
[8] = peptide alone or peptide:GAG 1:10, 20 mg/ml, 130 mM NaCl in D2O (P11-9 samples in DPBS)

Row | Time to gel [1, 4] | Time to gel [1, 5] | Time to gel [1, 6] | Morphology [2, 7] | Fibril width [2, 8] | Twist pitch ([2]; 20 mg/ml) | Ribbon width [2, 8] | Physical state of sample (gel or liquid) ([1]; 130 mM NaCl in D2O, PEG added at same wt% as 1:10 Pep:GAG ratio) | Time to gel ([1]; peptide : GAG ratio 1:50, visually observed, room temperature) | Time to gel ([1]; peptide : GAG ratio 1:100, visually observed, room temperature) | Gelation time ([1]; when higher GAG ratios were used, visually observed, room temperature) | Time for the monomer concentration to equilibrate ([3]; GAG present at peptide : GAG ratio of 1 : 5) | Time for the monomer concentration to equilibrate ([3]; peptide only) | Large loose bundle /fibre width [2, 8] | Substance
1 | Minutes -hours | Seconds-minutes | Seconds | Twisted fibrils | 14.6 nm | 76.6 ± 17.1 nm |  |  |  |  |  |  |  |  | Ac-QQRFEWEFEQQ-NH2 [P11-4]
2 | Minutes | Seconds | Seconds | Ribbons |  |  | 4 ± 1 nm |  |  |  |  |  |  |  | Ac-SSRFEWEFESS-NH2 [P11-9]
3 | days | seconds | Seconds | Twisted fibrils | 13.2 nm | 135.2 ± 22.1 nm | 5.06 nm |  |  |  |  |  |  |  | CH3CO-Q-Q-R-F-O-W-O-F-E-Q-Q-NH2 [P11-8]
4 | Minutes | Seconds | Seconds | Twisted fibrils and ribbons | 10.1 nm | 114.3 ± 10.3 nm | 5.0 ± 0.8 nm | liquid | Spontaneous | Spontaneous | instantaneously | less than a week | within two months | 43.7 ± 11.5 nm | CH3CO-S-S-R-F-O-W-O-F-E-S-S-NH2 [P11-12]
